What was measured:
Conditions in all cases: Compound concentration 1000.0 nM
[1] = molecular target: Proto-oncogene tyrosine-protein kinase Src (Homo sapiens) (UniProt P12931)
[2] = molecular target: Fibroblast growth factor receptor 3 (Homo sapiens) (UniProt P22607)
[3] = molecular target: Casein kinase I isoform delta (Homo sapiens) (UniProt P48730)
[4] = molecular target: T1, Serine/threonine-protein kinase haspin (Homo sapiens) (UniProt Q8TF76)
T1 sequence (whole entry): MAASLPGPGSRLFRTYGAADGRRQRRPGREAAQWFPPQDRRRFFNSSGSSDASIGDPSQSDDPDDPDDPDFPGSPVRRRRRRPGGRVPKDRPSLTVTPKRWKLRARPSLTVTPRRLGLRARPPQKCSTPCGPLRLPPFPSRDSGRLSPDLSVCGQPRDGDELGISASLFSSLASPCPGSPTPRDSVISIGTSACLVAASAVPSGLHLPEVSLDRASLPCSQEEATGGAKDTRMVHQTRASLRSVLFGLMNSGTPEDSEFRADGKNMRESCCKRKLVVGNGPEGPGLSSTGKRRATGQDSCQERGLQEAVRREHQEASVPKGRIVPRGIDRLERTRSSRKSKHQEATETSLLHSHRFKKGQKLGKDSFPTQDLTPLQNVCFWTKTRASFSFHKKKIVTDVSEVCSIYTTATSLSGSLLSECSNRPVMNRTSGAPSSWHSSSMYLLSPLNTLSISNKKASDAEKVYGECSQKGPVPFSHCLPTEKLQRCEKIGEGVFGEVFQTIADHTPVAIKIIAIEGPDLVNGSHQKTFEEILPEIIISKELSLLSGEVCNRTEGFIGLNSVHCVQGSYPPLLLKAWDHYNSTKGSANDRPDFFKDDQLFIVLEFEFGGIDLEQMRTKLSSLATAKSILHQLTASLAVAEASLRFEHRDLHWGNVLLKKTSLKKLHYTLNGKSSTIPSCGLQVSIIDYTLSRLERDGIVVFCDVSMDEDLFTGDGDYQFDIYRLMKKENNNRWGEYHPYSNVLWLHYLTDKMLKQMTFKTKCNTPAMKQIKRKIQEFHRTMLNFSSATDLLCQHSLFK

[5] = molecular target: T2, Dual specificity protein kinase TTK (Homo sapiens) (UniProt P33981)
T2 sequence (whole entry): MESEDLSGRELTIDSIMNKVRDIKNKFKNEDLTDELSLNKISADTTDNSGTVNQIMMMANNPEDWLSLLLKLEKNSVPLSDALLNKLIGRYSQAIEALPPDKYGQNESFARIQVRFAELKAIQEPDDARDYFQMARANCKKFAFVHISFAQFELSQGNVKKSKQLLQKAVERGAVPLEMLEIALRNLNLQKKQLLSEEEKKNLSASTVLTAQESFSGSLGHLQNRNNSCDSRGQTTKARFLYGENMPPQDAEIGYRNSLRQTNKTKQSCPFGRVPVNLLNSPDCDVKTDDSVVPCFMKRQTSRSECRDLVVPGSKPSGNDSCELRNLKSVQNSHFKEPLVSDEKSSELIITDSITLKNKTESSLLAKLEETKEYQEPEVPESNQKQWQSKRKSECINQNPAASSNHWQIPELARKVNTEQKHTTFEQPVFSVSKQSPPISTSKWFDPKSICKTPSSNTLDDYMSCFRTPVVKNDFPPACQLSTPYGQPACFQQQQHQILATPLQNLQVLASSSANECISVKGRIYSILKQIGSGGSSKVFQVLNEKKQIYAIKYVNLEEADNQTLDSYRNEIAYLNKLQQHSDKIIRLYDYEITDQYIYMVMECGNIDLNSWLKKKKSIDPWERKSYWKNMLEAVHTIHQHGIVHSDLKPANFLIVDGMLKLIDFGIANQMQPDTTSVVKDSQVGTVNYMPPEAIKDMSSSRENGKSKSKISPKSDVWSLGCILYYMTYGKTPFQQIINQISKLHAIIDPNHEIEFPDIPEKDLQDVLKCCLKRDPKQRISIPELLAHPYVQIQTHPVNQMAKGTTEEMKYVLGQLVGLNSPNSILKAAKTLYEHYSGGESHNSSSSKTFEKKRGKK

[6] = molecular target: Insulin-like growth factor 1 receptor (Homo sapiens) (UniProt P08069)
[7] = molecular target: Bone morphogenetic protein receptor type-1A (Homo sapiens) (UniProt P36894)
[8] = molecular target: Mitogen-activated protein kinase kinase kinase 19 (Homo sapiens) (UniProt Q56UN5)
[9] = tested on: Phosphatidylinositol 4,5-bisphosphate 3-kinase catalytic subunit alpha isoform (Homo sapiens), P42336 [I800L]
[10] = molecular target: Rho-associated protein kinase 1 (Homo sapiens) (UniProt Q13464)
Chain of Rho-associated protein kinase 1 (Homo sapiens) (Q13464 2-1354 limits assumed): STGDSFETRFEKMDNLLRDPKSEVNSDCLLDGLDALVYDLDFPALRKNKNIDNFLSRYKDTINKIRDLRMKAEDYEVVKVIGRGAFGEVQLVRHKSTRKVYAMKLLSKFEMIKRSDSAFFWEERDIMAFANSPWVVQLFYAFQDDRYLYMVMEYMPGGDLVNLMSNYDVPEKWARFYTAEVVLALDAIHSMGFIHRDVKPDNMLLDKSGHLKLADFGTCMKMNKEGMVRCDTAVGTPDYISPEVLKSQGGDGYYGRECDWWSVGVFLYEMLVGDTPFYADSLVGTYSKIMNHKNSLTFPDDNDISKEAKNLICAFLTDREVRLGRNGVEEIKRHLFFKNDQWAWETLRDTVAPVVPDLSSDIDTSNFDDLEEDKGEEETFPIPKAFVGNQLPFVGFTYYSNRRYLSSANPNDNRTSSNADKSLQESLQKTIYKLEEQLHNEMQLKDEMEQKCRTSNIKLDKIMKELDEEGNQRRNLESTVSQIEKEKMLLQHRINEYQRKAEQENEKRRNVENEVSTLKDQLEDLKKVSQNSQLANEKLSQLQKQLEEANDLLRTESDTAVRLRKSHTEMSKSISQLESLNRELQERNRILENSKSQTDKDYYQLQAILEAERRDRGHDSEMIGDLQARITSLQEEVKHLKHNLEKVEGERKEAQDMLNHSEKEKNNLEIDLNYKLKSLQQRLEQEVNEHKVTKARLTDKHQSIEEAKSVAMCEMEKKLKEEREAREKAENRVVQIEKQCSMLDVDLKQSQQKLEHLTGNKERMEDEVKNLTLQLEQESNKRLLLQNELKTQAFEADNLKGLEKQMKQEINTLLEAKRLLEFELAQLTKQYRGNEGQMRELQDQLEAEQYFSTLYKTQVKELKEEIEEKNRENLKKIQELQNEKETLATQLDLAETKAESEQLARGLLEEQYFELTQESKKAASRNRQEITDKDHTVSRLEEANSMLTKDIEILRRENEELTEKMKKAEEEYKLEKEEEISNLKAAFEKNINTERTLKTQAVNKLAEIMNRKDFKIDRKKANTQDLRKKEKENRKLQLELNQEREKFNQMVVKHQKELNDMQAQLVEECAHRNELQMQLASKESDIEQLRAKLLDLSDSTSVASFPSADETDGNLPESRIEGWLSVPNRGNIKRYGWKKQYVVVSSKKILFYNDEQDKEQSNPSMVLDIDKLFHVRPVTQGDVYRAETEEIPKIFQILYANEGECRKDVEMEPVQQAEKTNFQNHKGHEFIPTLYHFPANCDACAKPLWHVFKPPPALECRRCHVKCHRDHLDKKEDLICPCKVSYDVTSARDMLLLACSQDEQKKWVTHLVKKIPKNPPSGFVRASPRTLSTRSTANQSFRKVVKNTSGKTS

[11] = molecular target: Phosphatidylinositol 4-phosphate 3-kinase C2 domain-containing subunit beta (Homo sapiens) (UniProt O00750)
[12] = molecular target: Serine/threonine-protein kinase RIO2 (Homo sapiens) (UniProt Q9BVS4)
[13] = tested on: Tyrosine-protein kinase ABL1 (Homo sapiens), P00519 [T315I]
[14] = molecular target: Leucine-rich repeat serine/threonine-protein kinase 2 (Homo sapiens) (UniProt Q5S007)
[15] = molecular target: Serine/threonine-protein kinase DCLK3 (Homo sapiens) (UniProt Q9C098)
[16] = molecular target: Dual specificity tyrosine-phosphorylation-regulated kinase 2 (Homo sapiens) (UniProt Q92630)
[17] = tested on: Epidermal growth factor receptor (Homo sapiens), P00533 [UNDEFINED MUTATION]
[18] = molecular target: Mitogen-activated protein kinase kinase kinase 6 (Homo sapiens) (UniProt O95382)
[19] = tested on: ALK tyrosine kinase receptor (Homo sapiens), Q9UM73 [C1156Y]
Chain of ALK tyrosine kinase receptor (Homo sapiens), Q9UM73 [C1156Y] (Q9UM73 whole entry C1156Y, looked up): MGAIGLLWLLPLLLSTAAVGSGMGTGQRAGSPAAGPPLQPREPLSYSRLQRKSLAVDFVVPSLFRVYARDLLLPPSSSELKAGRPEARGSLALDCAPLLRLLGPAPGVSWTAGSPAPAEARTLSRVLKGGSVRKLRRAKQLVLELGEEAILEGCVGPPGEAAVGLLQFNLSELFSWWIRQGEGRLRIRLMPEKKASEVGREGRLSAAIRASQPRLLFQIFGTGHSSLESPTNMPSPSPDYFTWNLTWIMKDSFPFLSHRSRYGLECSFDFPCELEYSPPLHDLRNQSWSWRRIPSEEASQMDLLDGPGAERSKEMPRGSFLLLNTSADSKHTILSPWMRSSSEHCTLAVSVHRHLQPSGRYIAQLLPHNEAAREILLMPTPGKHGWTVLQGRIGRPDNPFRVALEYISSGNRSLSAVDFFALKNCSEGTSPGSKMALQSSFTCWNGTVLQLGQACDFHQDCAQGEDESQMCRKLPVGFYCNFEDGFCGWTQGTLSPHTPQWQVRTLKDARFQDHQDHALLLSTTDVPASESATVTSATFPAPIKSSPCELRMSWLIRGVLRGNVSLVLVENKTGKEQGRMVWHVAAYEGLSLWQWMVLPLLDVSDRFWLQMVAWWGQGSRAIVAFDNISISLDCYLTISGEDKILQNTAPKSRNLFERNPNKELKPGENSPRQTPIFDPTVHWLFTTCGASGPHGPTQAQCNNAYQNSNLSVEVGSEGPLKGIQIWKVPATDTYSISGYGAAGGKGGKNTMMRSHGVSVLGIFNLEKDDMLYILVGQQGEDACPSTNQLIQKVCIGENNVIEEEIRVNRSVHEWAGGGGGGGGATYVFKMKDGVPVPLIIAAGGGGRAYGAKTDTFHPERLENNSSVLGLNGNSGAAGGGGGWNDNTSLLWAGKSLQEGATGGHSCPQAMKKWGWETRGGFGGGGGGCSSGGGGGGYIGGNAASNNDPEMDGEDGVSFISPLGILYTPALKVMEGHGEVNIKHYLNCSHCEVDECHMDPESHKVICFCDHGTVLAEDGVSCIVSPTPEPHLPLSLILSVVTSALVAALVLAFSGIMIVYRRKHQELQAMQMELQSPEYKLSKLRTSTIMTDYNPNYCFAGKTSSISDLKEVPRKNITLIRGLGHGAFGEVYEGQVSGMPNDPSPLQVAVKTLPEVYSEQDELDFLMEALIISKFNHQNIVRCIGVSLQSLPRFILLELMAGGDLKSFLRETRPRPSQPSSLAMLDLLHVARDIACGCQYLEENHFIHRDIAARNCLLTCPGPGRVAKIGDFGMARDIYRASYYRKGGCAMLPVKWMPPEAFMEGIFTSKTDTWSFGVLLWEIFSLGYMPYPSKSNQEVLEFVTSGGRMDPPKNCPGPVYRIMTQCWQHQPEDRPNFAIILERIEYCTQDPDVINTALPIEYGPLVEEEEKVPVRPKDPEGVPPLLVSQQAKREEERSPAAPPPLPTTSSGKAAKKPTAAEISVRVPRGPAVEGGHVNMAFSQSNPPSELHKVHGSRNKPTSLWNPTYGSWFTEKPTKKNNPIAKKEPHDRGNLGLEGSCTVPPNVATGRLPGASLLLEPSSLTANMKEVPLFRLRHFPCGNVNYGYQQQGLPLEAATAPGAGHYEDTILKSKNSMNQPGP

[20] = molecular target: Tyrosine-protein kinase Srms (Homo sapiens) (UniProt Q9H3Y6)
[21] = molecular target: Calcium/calmodulin-dependent protein kinase kinase 1 (Homo sapiens) (UniProt Q8N5S9)
Chain of Calcium/calmodulin-dependent protein kinase kinase 1 (Homo sapiens) (Q8N5S9 whole entry, looked up): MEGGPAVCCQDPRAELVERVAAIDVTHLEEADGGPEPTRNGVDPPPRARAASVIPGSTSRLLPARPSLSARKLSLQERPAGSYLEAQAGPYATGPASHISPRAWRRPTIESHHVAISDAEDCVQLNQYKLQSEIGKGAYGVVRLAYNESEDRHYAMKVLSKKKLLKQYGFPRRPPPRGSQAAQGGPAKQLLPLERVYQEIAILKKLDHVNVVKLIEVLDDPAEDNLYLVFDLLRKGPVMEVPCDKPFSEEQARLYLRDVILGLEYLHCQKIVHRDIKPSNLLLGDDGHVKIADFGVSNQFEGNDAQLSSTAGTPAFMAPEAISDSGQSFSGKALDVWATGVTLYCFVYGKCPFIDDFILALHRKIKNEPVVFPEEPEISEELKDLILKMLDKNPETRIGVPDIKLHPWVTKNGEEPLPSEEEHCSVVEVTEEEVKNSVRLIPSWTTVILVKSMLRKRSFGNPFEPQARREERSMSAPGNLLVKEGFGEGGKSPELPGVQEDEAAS

[22] = molecular target: Calcium/calmodulin-dependent protein kinase type 1G (Homo sapiens) (UniProt Q96NX5)
Chain of Calcium/calmodulin-dependent protein kinase type 1G (Homo sapiens) (Q96NX5 whole entry): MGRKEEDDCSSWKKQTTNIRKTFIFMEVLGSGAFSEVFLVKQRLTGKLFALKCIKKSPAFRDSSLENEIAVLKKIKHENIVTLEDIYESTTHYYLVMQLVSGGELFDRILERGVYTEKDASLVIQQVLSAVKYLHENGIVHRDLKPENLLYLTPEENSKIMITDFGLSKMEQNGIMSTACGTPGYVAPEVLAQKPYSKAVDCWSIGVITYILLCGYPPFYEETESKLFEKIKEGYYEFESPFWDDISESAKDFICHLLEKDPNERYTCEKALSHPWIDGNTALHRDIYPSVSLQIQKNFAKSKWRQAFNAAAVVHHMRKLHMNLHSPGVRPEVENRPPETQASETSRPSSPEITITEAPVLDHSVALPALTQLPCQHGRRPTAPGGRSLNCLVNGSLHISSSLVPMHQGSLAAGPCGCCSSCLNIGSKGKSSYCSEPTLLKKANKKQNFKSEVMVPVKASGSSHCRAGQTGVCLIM

Measured: residual activity

Chain of Fibroblast growth factor receptor 3 (Homo sapiens) (P22607 23-806 limits assumed): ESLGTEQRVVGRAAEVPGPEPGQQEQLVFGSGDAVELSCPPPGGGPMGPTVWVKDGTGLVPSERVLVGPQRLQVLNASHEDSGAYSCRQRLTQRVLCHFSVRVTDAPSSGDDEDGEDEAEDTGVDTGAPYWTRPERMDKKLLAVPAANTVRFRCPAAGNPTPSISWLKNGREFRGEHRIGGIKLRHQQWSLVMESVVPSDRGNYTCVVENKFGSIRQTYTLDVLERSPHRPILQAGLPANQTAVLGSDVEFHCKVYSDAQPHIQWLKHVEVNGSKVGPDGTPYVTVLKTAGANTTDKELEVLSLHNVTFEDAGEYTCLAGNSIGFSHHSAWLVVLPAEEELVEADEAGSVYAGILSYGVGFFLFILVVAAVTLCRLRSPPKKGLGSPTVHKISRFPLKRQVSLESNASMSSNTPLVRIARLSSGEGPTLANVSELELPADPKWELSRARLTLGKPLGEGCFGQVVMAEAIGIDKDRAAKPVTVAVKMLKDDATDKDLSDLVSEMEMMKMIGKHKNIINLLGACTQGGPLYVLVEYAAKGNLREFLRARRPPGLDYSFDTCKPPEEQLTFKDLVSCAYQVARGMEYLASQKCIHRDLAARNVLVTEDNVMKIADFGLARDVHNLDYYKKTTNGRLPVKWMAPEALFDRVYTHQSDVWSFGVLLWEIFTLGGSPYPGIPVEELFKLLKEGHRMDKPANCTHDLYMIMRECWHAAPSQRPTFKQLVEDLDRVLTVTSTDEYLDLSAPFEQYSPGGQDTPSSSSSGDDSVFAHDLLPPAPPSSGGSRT

CN(C)C(=O)Cn1cc(-c2nc(C3(c4ccc(-c5cnc(N)nc5)cc4)CC3)no2)cn1 [BI 0153]
inactive: [1] 84% | [2] 100% | [3] 100% | [4] 74% | [5] 100% | [6] 85% | [7] 87% | [8] 73% | [9] 91% | [10] 83% | [11] 100% | [12] 76% | [13] 82% | [14] 100% | [15] 100% | [16] 81% | [17] 100% | [18] 78% | [19] 100% | [20] 73% | [21] 100% | [22] 100%

CN(C)C(=O)Cn1cc(-c2nc([C@@](C)(c3ccc(-c4cnc(N)nc4)cc3)C3CC3)no2)cn1 [BI 665915]
inactive: [1] 90% | [2] 94% | [3] 96% | [4] 100% | [5] 100% | [6] 100% | [7] 100% | [8] 61% | [9] 54% | [10] 97% | [11] 96% | [12] 87% | [13] 86% | [14] 74% | [15] 96% | [16] 89% | [17] 100% | [18] 90% | [19] 98% | [20] 93% | [21] 100% | [22] 100%
